Measured values: US20230123334A1, “AMINO LIPID COMPOUND, PREPARATION METHOD THEREFOR, AND APPLICATION THEREOF” (SHENZHEN SHENXIN BIOTECHNOLOGY CO., LTD., priority 2020, published 2023)

Test system: HEK293 cells
Assay: Preliminary screening as DNA vectors, GFP transfection of HEK293 cells
Type: cell-based
Conditions: amino lipid/DOPE liposome with 75 ng plasmid DNA (psin-EGFP-IRES-Puro); number of GFP-expressing cells divided by total nuclei (Hoechst)
Experimental: Cell line: HEK293 cells (ATCC CRL-1573™)
Medium: DMEM supplemented with 10% fetal bovine serum (Invitrogen)
Mode of screening: cell transfection on 96-well plates
Detection (readout): percentage of the number of GFP fluorescent cells relative to the total number of cells (the total number of cells was measured using nucleus dye Hoechst—see FIG. 2). Lipofectamine2000 (Invitrogen) was used as positive control, according to the manufacturer's instructions.
Method: an 8-channel pipette was used for sample addition. The contents shown were for a single well of a 96-well flat plate.
1. The compound (0.01 mmol) prepared in Example 1 was dissolved in 1 mL of anhydrous ethanol. After ultrasonically dissolved, 10 μL of the resultant amino lipid solution in ethanol was taken and mixed with 5 μL of DOPE solution in ethanol (0.01 m), and then to the obtained mixture was added 35 μL of 0.2M sodium acetate buffer (pH 5.6), and 50 μL of liposome solution was prepared by vortex at a constant rotating speed for 30 s. 4 μL was taken from the 50 μL liposome solution and added to 46 μL of 0.02M sodium acetate buffer (pH 5.6), and the final liposome solution was formed by vortex at a constant rotating speed for 30 s. 5 μL was taken from the final liposome solution and mixed with 75 ng plasmid DNA (psin-EGFP-IRES-Puro, Clontech) dissolved in 5 μL of 0.02 M sodium acetate buffer, and was allowed to stay at room temperature for 30 min to form a lipid/DNA transfection complex.
2. 10 μL of the lipid/DNA transfection complex was incubated at room temperature for 30 min, followed by addition of 90 μL of fresh resuspended cells (3-5×10^4 cells) and mixing with a pipette. 100 μL of cells+lipid/DNA complex was transferred to separate wells of a 96-well culture plate immediately, and placed in an incubator containing 5% CO2 at 37° C.
3. Hoechst33258 (Invitrogen) was added at a final concentration of 0.2 μg/mL to the cells 20 to 24 hours after initial cell transfection, and cultured in darkness at 37° C. for 15 min. Afterwards, the cells were washed once with a PBS solution, and then added with medium for culture for 20 to 24 h.
4. The cells were placed in a high-throughput confocal microscope (Molecular Devices ImageXpress), and four visual fields of the image of the cells were captured for each well, and images at three laser wavelengths were captured for each sample: bright field images of cells (FIG. 2(a) and FIG. 2(b)), Hoechst-staining images showing total nuclei (FIG. 2(c) and FIG. 2(d)) and GFP images showing success in transfection with the plasmid DNA and the expression of GFP (FIG. 2(e) and FIG. 2(f)). MetaXpress software was used to separately count the cells in the Hoechst-staining images and GFP images, and then the number of cells expressing GFP was divided by the total number of nuclei to give the absolute cell transfection efficiency. The absolute transfection efficiency was calculated as follows: […]

Row | Structure (SMILES) | Absolute DNA transfection efficiency in HEK293 cells
1 | CCCCCCCCCCCCCCCCNc1nc(NCCN2CCN(C)CC2)nc(SCCCCCCCCC)n1 [S9N16 D5] | 21.7%
2 | CCCCCCCCCCCCCCCCNc1nc(NCCCN2CCN(C)CC2)nc(SCCCCCCCC)n1 [S8N16 D9] | 9.7%
3 | CCCCCCCCCCCCCCSc1nc(NCCCCCCCCCCC)nc(NCC2CCN(C)CC2)n1 [S14N11 D10] | 9.0%
4 | CCCCCCCCCCCCCCCCCCNc1nc(NCCN(CC)CC)nc(SCCCCCCCC)n1 [S8N18 D7] | 4.1%
5 | CCCCCCCCCSc1nc(NCCCCCCC)nc(NCCN2CCCC2)n1 [S9N7 D3] | 27.3%
6 | CCCCCCCCCCCCCCCCNc1nc(NCCN2CCCC2)nc(SCCCCCCCCCCCCCCC)n1 [S15N16 D3] | 0.6%
7 | CCCCCCCCCCCCCCCCCCSc1nc(NCCCCCCCC)nc(NCCN2CCCC2)n1 [S18N8 D3] | 9.6%
8 | CCCCCCCCCCCCCCCCCCSc1nc(NCCCCCCCCC)nc(NCCN2CCOCC2)n1 [S18N9 D2] | 3.4%
9 | CCCCCCCCCCCCCCCNc1nc(NCCCN(C)C)nc(SCCCCCCC)n1 [S7N15 D6] | 15.9%
10 | CCCCCCCCCCCCSc1nc(NCCCCCCCC)nc(NCCN(CC)CC)n1 [S12N8 D7] | 0.1%
11 | CCCCCCCCCCCCCNc1nc(NCCN2CCOCC2)nc(SCCCCCC)n1 [S6N13 D2] | 1.9%
12 | CCCCCCCCCCCCCCCCNc1nc(NCCN2CCCCC2)nc(SCCCCCCCCC)n1 [S9N16 D4] | 8.1%
13 | CCCCCCCCCCCCCCCCCCNc1nc(NCCN2CCOCC2)nc(SCCCCCCCCCC)n1 [S10N18 D2] | 2.1%
14 | CCCCCCCCCCCCCNc1nc(NCCCN2CCN(C)CC2)nc(SCCCCCCCCCC)n1 [S10N13 D9] | 0.4%
15 | CCCCCCCCCCCCCCCSc1nc(NCCN2CCCCC2)nc(SCCCCCCC)n1 [S7S15 D4] | 11.6%
16 | CCCCCCCCCCCCCCCSc1nc(NCCCCCCCCC)nc(NCCCN2CCOCC2)n1 [S15N9 D8] | 10.1%
17 | CCCCCCCCCCCNc1nc(NCCN2CCCC2)nc(SCCCCCCCC)n1 [S8N11 D3] | 52.0%
18 | CCCCCCCCCCCCCNc1nc(NCCN(C)C)nc(SCCCCCCCCCCC)n1 [S11N13 D1] | 10.6%
19 | CCCCCCCCCCSc1nc(NCCN(C)C)nc(SCCCCCCCC)n1 [S8S10 D1] | 16.3%
20 | CCCCCCCCCNc1nc(NCCCN2CCOCC2)nc(SCCCCCC)n1 [S6N9 D8] | 0.0%
21 | CCCCCCCCCCCCCCSc1nc(NCCCN2CCN(C)CC2)nc(SCCCCCC)n1 [S6S14 D9] | 4.1%
22 | CCCCCCCCCCCCCCCCNc1nc(NCCN(CC)CC)nc(SCCCCCCCCCCC)n1 [S11N16 D7] | 1.7%
23 | CCCCCCCCCCCCCCCNc1nc(NCCCN(C)C)nc(SCCCCCCCCCCCCCC)n1 [S14N15 D6] | 0.8%
24 | CCCCCCCCCCCCSc1nc(NCCCN(C)C)nc(SCCCCCC)n1 [S6S12 D6] | 13.6%
25 | CCCCCCCCCCCCSc1nc(NCCN2CCCC2)nc(SCCCCCC)n1 [S6S12 D3] | 4.3%
26 | CCCCCCCCCCCCCCCCSc1nc(NCCN2CCOCC2)nc(SCCCCCC)n1 [S6S16 D2] | 24.0%
27 | CCCCCCCCCSc1nc(NCCCCCC)nc(NCCN(CC)CC)n1 [S9N6 D7] | 9.8%
28 | CCCCCCCCCCCCN(CCCCCCCCCCCC)c1nc(NCCN2CCOCC2)nc(SCCCCCCC)n1 [S7^2N12 D2] | 0.0%
29 | CCCCCCCCCCCCCCCCNc1nc(NCCCN2CCN(C)CC2)nc(SCCCCCCCCCC)n1 [S10N16 D9] | 5.0%
